Here are results for 28 molecules from patent US9000186B2, “Ring-fused heterocyclic derivative” (Kyowa Hakko Kirin Co., Ltd., priority 2011, dated 2015).

In experiment [1] the target is T1, human Cav3.2 T-type Ca2+ channel (Homo sapiens, UniProt O95180).
T1 construct: expressed in transfected cells; host or cells: KJMGER8 cells (Namalwa cell-derived cell line)
Kind of experiment: Inhibitory effect for intracellular calcium response via Cav3.2 T-type Ca2+ channels (FLIPR Calcium 3 Assay Kit). Format: cell-based.

Experiment [2] deals with morphine-induced pruritus mice. Put plainly: Inhibitory effect for pruritus in morphine-induced pruritus mice. The format is in vivo, male ddY mice. To be noted: oral, dose of 30 mg/kg or less, 30 minutes before intrathecal morphine (1 nmol/5 μL); scratching counted for 30 minutes. Here is the method: Morphine (1 nmol/5 μL, dissolved in physiological saline) or physiological saline was intrathecally administered between the fifth and sixth lumbar vertebrae of male ddY mice using a microsyringe fitted with a 30-gauge injection needle. Mice administered with only morphine were used as a control group, and mice administered with only physiological saline as a physiological saline-administered group.
After the morphine administration, the number of scratching behavior with the hind legs which observed immediately in the mice was measured for 30 minutes. Because mice show a rapid, continuous scratching behavior in each scratching behavior, a series of such behavior was counted as a single scratching behavior.
The test compounds were administered 30 minutes before the morphine administration. Each test compound was suspended in a 0.5% methylcellulose solution, and orally administered in 10 mL/kg volume.

[3] abbreviates: human Cav3.2-expressing KJMGER8 cells (Namalwa-derived), calcium response induced by 5 mmol/L CaCl2, normalised to 3 μmol/L mibefradil, read-out: IC50 for the human Cav3.2 T-type Ca2+ current.

Each structure is given as a SMILES string. Read-outs that look alike come from different tables or passages of the source.

T1 sequence (O95180 whole entry): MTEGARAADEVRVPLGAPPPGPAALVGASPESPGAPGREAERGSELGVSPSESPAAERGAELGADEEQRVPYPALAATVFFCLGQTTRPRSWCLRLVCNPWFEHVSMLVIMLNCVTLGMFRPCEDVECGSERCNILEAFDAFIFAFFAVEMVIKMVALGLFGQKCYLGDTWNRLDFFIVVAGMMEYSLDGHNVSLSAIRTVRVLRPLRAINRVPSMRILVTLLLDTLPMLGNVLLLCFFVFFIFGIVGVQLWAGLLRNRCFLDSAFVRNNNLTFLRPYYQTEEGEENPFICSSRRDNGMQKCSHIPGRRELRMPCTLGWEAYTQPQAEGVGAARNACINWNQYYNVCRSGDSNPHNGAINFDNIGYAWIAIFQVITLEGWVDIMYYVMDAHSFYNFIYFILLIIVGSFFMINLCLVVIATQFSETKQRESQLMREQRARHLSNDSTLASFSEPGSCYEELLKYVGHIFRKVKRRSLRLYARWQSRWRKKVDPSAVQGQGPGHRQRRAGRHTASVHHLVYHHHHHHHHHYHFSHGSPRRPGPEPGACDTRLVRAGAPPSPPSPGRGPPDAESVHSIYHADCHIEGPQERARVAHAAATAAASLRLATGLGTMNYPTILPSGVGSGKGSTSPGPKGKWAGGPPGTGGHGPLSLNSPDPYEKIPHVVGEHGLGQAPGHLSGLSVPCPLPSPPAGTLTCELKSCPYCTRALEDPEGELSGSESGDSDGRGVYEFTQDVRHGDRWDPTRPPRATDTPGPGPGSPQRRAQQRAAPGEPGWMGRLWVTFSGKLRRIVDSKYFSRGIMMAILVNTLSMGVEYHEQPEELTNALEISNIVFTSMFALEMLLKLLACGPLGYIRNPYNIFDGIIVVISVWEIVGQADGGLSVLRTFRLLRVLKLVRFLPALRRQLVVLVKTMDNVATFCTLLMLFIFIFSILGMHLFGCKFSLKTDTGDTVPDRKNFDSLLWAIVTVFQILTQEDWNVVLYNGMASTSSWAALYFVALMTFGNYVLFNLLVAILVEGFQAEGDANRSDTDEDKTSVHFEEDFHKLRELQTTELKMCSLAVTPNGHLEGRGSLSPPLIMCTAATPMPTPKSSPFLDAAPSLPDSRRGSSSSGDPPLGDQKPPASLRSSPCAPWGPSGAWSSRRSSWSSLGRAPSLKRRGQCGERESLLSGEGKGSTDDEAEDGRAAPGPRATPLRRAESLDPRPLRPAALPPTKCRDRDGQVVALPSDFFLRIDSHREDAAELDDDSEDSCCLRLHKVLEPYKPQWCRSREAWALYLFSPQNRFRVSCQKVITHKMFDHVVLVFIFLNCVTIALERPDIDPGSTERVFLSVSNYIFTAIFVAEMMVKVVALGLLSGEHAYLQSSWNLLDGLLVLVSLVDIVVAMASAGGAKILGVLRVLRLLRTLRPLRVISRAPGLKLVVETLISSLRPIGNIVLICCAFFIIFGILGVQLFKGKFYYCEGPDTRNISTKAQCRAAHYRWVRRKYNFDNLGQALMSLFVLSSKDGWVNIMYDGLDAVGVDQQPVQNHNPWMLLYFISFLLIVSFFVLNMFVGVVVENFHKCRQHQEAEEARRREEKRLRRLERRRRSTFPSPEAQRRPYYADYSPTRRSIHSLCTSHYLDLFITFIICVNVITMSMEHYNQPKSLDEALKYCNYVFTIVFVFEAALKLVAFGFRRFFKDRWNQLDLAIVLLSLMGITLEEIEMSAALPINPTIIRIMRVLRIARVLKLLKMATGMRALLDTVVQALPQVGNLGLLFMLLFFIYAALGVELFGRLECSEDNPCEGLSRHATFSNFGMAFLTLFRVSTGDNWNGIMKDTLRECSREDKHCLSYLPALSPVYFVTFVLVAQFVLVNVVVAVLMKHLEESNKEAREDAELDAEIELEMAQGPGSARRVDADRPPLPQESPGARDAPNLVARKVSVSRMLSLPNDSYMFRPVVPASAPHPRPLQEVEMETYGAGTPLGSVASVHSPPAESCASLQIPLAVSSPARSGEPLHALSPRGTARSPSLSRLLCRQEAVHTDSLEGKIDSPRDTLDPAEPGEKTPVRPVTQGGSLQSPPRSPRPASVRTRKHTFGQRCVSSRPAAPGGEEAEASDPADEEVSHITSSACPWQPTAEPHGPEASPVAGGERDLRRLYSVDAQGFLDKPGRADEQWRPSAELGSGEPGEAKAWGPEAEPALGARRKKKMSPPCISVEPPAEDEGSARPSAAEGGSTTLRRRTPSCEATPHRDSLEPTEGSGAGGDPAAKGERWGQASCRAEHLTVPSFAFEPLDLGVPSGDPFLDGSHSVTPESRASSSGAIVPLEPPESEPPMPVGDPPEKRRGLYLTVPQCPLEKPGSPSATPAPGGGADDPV

By IC50 is commonly meant the concentration that inhibits the measured activity by half. As to `CC1CCCN(C(=O)c2ccn3c(CC4CCCCC4)c(C(C)(C)C)nc3c2)C1` (stereo not shown) [Compound 14, (2-tert-Butyl-3-cyclohexylmethylimidazo[1,2-a]pyridin-7-yl)(3-methylpiperidin-1-yl)methanone], the IC50 in experiment [1] is less than 100 nM. For the same molecule, the “increase of the scratching behavior observed in the morphine-induced pruritus mice” value (from here on “increase”) in experiment [2] is reported as “inhibited”.
For `CC(C)(C)c1nc2cc(C(=O)NC3CCC3)ccn2c1CC1CCCCC1` [Compound 15, 2-tert-Butyl-N-cyclobutyl-3-cyclohexylmethylimidazo[1,2-a]pyridine-7-carboxamide], the 50% inhibitory concentration (IC50) in experiment [1] was less than 100 nM. Also, the “increase” value in experiment [2] was “inhibited”.
For `CC(C)c1nc2cc(C(=O)Nc3ccccc3)ccn2c1COC1CCCCC1` [Compound 21, 3-Cyclohexyloxymethyl-2-isopropyl-N-phenylimidazo[1,2-a]pyridine-7-carboxamide], the IC50 in experiment [1] (setting [3]) was less than 100 nM. In addition, the “increase” value in experiment [2] is on record as “inhibited”.
As to `CC(C)c1nc2cc(C(=O)Nc3ccncc3)ccn2c1COC1CCCCC1` [Compound 24, 3-Cyclohexyloxymethyl-2-isopropyl-N-(pyridin-4-yl)imidazo[1,2-a]pyridine-7-carboxamide], the IC50 in experiment [1] (setting [3]) was less than 100 nM. Moreover, the “increase” value in experiment [2] was “inhibited”.
Take `CC(C)(C)c1nc2cc(C(=O)Nc3ccncc3)ccn2c1CC1CCC(F)(F)CC1` [Compound 34, 2-tert-Butyl-3-(4,4-difluorocyclohexylmethyl)-N-(pyridin-4-yl)imidazo[1,2-a]pyridine-7-carboxamide]: the IC50 in experiment [1] was less than 100 nM. In experiment [2], the “increase” value was “inhibited”.
The corresponding values for `O=C(Nc1ccncc1)c1ccn2c(CC3CCCCC3)c(C(F)(F)F)nc2c1` [Compound 35, 3-Cyclohexylmethyl-N-(pyridin-4-yl)-2-trifluoromethylimidazo[1,2-a]pyridine-7-carboxamide] are less than 100 nM and “inhibited”.
As for `O=C(Nc1ccncc1)c1ccn2c(CC3CCC(F)(F)CC3)c(C(F)(F)F)nc2c1` [Compound 36, 3-(4,4-Difluorocyclohexylmethyl)-N-(pyridin-4-yl)-2-trifluoromethylimidazo[1,2-a]pyridine-7-carboxamide], the “increase” value in experiment [2] is given as “inhibited”.
As for `CC(C)c1nc2cc(C(=O)Nc3ccncc3)ccn2c1S(=O)(=O)C1CCCCC1` [Compound 38, 3-Cyclohexylsulfonyl-2-isopropyl-N-(pyridin-4-yl)imidazo[1,2-a]pyridine-7-carboxamide], the IC50 in experiment [1] was less than 100 nM. For the same molecule, the “increase” value in experiment [2] is “inhibited”.
For `CC(C)c1nc2cc(C(=O)Nc3ccccc3)ccn2c1S(=O)(=O)C1CCCCC1` [Compound 41, 3-Cyclohexylsulfonyl-2-isopropyl-N-phenylimidazo[1,2-a]pyridine-7-carboxamide], in that order: less than 100 nM and “inhibited”.
For `Cc1cn2c(COC3CCCCC3)c(C(C)C)nc2cc1C(=O)Nc1ccncc1` [Compound 43, 3-Cyclohexyloxymethyl-2-isopropyl-6-methyl-N-(pyridin-4-yl)imidazo[1,2-a]pyridine-7-carboxamide], in that order: less than 100 nM and “inhibited”.
For the molecule `Cc1cc(C(=O)NC2CCOCC2)cc2nc(C(F)(F)F)c(CC3CCC(F)(F)CC3)n12` [Compound 44, 3-(4,4-Difluorocyclohexylmethyl)-5-methyl-N-(tetrahydro-2H-pyran-4-yl)-2-trifluoromethylimidazo[1,2-a]pyridine-7-carboxamide], the “increase” value in experiment [2] is “inhibited”.
The same measure, in the same setting: under `CC1(C)CC(NC(=O)c2ccn3c(CC4CCC(F)(F)CC4)c(C(F)(F)F)nc3c2)CCO1` (stereo not shown) [Compound 54, 3-(4,4-Difluorocyclohexylmethyl)-N-(2,2-dimethyltetrahydro-2H-pyran-4-yl)-2-trifluoromethylimidazo[1,2-a]pyridine-7-carboxamide] stands “inhibited”; under `Cc1cn2c(CC3CCC(F)(F)CC3)c(C(F)(F)F)nc2cc1C(=O)NC1CCOCC1` [Compound 118, 3-(4,4-Difluorocyclohexylmethyl)-6-methyl-N-(tetrahydro-2H-pyran-4-yl)-2-trifluoromethylimidazo[1,2-a]pyridine-7-carboxamide], “inhibited”.
With `Cc1cc(NC(=O)c2cc3nc(C(C)C)c(S(=O)(=O)NC(C)(C)C)n3cc2Cl)on1` [Compound 157, 3-(N-tert-Butylsulfamoyl)-6-chloro-2-isopropyl-N-(3-methylisooxazol-5-yl)imidazo[1,2-a]pyridine-7-carboxamide], the IC50 in experiment [1] (setting [3]) is less than 100 nM.
For the molecule `CC(C)c1nc2cc(C(=O)NC3CC(F)(F)C3)c(Cl)cn2c1S(=O)(=O)NC(C)(C)C` [Compound 158, 3-(N-tert-Butylsulfamoyl)-6-chloro-N-(3,3-difluorocyclobutyl)-2-isopropylimidazo[1,2-a]pyridine-7-carboxamide], in experiment [1] (setting [3]), the IC50 is less than 100 nM.
Still for that read-out and setting: under `CC(C)c1nc2cc(C(=O)NOCc3ccccc3)c(Cl)cn2c1S(=O)(=O)NC(C)(C)C` [Compound 159, N-Benzyloxy-3-(N-tert-butylsulfamoyl)-6-chloro-2-isopropylimidazo[1,2-a]pyridine-7-carboxamide] stands less than 100 nM.
On to `CC(C)(C)NS(=O)(=O)c1c(C(C)(C)C)nc2cc(C(=O)NC3CCOCC3)c(Cl)cn12` [Compound 162, 2-tert-Butyl-3-(N-tert-butylsulfamoyl)-6-chloro-N-(tetrahydro-2H-pyran-4-yl)imidazo[1,2-a]pyridine-7-carboxamide], for which the IC50 in experiment [1] is less than 100 nM.
Take `Cc1cn2c(S(=O)(=O)C3CCCCC3)c(C(C)C)nc2cc1C(=O)Nc1ccccc1` [Compound 163, 3-(Cyclohexylsulfonyl)-2-isopropyl-6-methyl-N-phenyl-imidazo[1,2-a]pyridine-7-carboxamide]: the IC50 in experiment [1] (setting [3]) was less than 100 nM.
Still for that read-out and setting: under `Cc1cn2c(S(=O)(=O)N3CCC(F)(F)CC3)c(C(C)C)nc2cc1C(=O)Nc1ccncc1` [Compound 165, 3-(4,4-Difluoropiperidin-1-ylsulfonyl)-2-isopropyl-6-methyl-N-(pyridin-4-yl)imidazo[1,2-a]pyridine-7-carboxamide] stands less than 100 nM; under `Cc1cn2c(S(=O)(=O)N3CC4(COC4)C3)c(C(C)C)nc2cc1C(=O)Nc1ccccc1` [Compound 166, 3-(2-Oxa-6-azaspiro[3.3]heptan-6-ylsulfonyl)-2-isopropyl-6-methyl-N-phenylimidazo[1,2-a]pyridine-7-carboxamide], less than 100 nM.
As to `Cc1cn2c(S(=O)(=O)NC(C)(C)C)c(C(C)C)nc2cc1C(=O)Nc1ccccc1` [Compound 168, 3-(N-tert-Butylsulfamoyl)-2-isopropyl-6-methyl-N-phenylimidazo[1,2-a]pyridine-7-carboxamide], in experiment [1], the IC50 was less than 100 nM.
Regarding `CC(C)c1nc2cc(-c3nc4ccccc4[nH]3)c(Cl)cn2c1S(=O)(=O)N1CC(F)(F)C1` [Compound 170, 2-{6-Chloro-3-(3,3-difluoroazetidin-1-ylsulfonyl)-2-isopropylimidazo[1,2-a]pyridin-7-yl}-1H-benzimidazole], in experiment [1] (setting [3]), the IC50 was less than 100 nM.
Same read-out and setting: for `CC(C)c1nc2nc(C(=O)Nc3ccccc3)ccn2c1S(=O)(=O)N1CCC(F)(F)CC1` [Compound 171, 3-(4,4-Difluoropiperidin-1-ylsulfonyl)-2-isopropyl-N-phenylimidazo[1,2-a]pyrimidine-7-carboxamide] the value was less than 100 nM; for `CC(C)c1nc2nc(C(=O)NC3CCCCC3)ccn2c1S(=O)(=O)N1CCC(F)(F)CC1` [Compound 172, N-Cyclohexyl-3-(4,4-difluoropiperidin-1-ylsulfonyl)-2-isopropylimidazo[1,2-a]pyrimidine-7-carboxamide], less than 100 nM.
Take `CC(C)c1nc2cc(NC(=O)C3CCCCC3)ncn2c1S(=O)(=O)N1CCC(F)(F)CC1` [Compound 175, N-{3-(4,4-Difluoropiperidin-1-ylsulfonyl)-2-isopropylimidazo[1,2-c]pyrimidin-7-yl}cyclohexanecarboxamide]: the IC50 in experiment [1] (setting [3]) was less than 100 nM.
Take `C#CC(C)(C)NS(=O)(=O)c1c(C(C)C)nc2cc(C(=O)Nc3ccccc3)c(Cl)cn12` [Compound 179, 6-Chloro-2-isopropyl-3-{N-(2-methylbut-3-yne-2-yl)sulfamoyl}-N-phenylimidazo[1,2-a]pyridine-7-carboxamide]: in experiment [1] (setting [3]), the IC50 was less than 100 nM.
Regarding `O=C(NC1CC=CCC1)c1ccn2c(CC3CCC(F)(F)CC3)c(C(F)(F)F)nc2c1` (stereo not shown) [Compound 180, N-(Cyclohex-3-enyl)-3-(4,4-difluorocyclohexylmethyl)-2-trifluoromethylimidazo[1,2-a]pyridine-7-carboxamide], the IC50 in experiment [1] was less than 100 nM.
Turning to `O=C(NOC1CCOCC1)c1cc2nc(C(F)(F)F)c(CC3CCC(F)(F)CC3)n2cc1Cl` [Compound 181, 6-Chloro-3-(4,4-difluorocyclohexylmethyl)-N-(tetrahydro-2H-pyran-4-yloxy)-2-trifluoromethylimidazo[1,2-a]pyridine-7-carboxamide], the IC50 in experiment [1] (setting [3]) is less than 100 nM.
